The record followed here is publication PMC9884089 (Journal of Medicinal Chemistry, 2023).

One series addresses T1, TNKS2 (Homo sapiens, UniProt Q9H2K2).
T1 sequence (Q9H2K2 1-1166): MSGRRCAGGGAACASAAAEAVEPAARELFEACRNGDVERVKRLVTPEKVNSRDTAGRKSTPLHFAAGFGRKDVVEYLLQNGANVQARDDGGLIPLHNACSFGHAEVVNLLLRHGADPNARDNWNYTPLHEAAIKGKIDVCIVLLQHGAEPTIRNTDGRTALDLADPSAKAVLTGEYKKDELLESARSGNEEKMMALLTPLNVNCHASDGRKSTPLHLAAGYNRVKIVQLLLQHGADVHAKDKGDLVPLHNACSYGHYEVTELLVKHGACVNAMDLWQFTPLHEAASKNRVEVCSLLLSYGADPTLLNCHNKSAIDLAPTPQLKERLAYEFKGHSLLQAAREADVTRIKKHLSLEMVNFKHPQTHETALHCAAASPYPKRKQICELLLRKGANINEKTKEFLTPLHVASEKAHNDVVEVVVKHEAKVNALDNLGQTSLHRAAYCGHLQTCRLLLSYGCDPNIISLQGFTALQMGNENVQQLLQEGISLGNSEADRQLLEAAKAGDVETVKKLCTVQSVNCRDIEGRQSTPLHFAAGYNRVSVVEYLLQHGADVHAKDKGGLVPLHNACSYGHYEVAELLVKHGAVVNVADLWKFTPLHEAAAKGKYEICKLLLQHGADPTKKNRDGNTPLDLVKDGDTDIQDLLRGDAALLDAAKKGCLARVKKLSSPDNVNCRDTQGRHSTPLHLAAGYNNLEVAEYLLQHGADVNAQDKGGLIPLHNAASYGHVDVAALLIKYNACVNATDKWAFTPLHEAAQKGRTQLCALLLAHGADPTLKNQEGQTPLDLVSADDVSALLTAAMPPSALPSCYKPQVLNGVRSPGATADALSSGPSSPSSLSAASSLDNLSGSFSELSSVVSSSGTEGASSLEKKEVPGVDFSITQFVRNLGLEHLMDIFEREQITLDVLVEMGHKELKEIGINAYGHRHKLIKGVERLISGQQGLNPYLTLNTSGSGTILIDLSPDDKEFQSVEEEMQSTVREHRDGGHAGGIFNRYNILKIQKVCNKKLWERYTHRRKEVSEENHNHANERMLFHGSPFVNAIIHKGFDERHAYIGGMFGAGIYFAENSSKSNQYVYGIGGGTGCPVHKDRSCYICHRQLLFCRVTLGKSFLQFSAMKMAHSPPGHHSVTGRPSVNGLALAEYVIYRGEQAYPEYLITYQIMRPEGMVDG
As to the kind of experiment: biochemical. Particulars: read-out: TNKS2 IC50; > = less than 50% inhibition at highest concentration. On the procedure: The proteins used in Tables 1–3 were produced as described earlier. Dockerin constructs to allow enhanced activity assays for mono-ARTs (Table 4) were produced in Escherichia coli with an N-terminal maltose binding protein (MBP) and a C-terminal dockerin domain from Hungateiclostridium thermocellum Cel48s as described recently.[47]
(§1) Inhibition experiments were performed using a homogenous assay measuring NAD+ consumption.[80]−[82] Reactions were carried out in quadruplicate, and IC50 curves were fitted using sigmoidal dose response curve (four variables) in GraphPad Prism version 8.02. […] Assay conditions for PARP2, TNKS2, PARP10, and PARP15 (Tables 1–3) were recently reported.[44] The conditions for the proximity-enhanced mono-ART assays (Table 4) were also reported recently.[47] PARP6 (400 nM) inhibition was measured using the standard buffer (50 mM sodium phosphate pH 7.0) for the enhanced activity assay using 500 nM NAD^+ and 18 h incubation in r.t..

The next series has as its target T2, Human PARP6 (Homo sapiens, UniProt Q2NL67).
T2 construct: Human PARP6 (Uniprot #Q2NL67-1) was cloned into a modified pFASTBac1 vector; 6× His-MBP with TEV protease site (N, cleaved yes); made in house; host or cells: Sf21 insect cells (baculovirus)
Description: PARP6 inhibition assay (400 nM PARP6, 500 nM NAD+, 18 h). Particulars: ≫ no inhibition at the concentration; > less than 50% inhibition. It is filed as biochemical. The procedure: as §1

The nature of series [1]: Metabolic stability in HLM. Particulars: 37 °C, 1 h, NADPH regenerating system. The procedure:
Each compound in DMSO solution was incubated at 37 °C for 1 h in phosphate buffer (25 mM pH 7.4), human liver microsomal protein (0.2 mg/mL), and in the presence of an NADPH regenerating system (NADPH 0.2 mM, […] 1 mM, D-glucose-6-phosphate 4 mM, 4 unit/mL glucose-6-phosphate dehydrogenase) in 48 mM MgCl2 at a final volume of 500 μL. The reaction was stopped by cooling in ice and quenched by adding 1.0 mL of acetonitrile. The reaction mixtures were then centrifuged (4000 rpm for 10 min), and the supernatant was taken, dried under nitrogen flow, and suspended in 100 μL of methanol. The parent drug and metabolites were subsequently determined by UV/LC–MS. The percentage of not metabolized compound was calculated by comparison with reference solutions. For each compound, the determination was performed in three independent experiments.

Series [2] is described as follows: Thermodynamic water solubility. It is filed as physicochemical. The conditions noted are these: distilled water, r.t. On the procedure:
Each solid compound (1 mg) was added to 1 mL of distilled water. Each sample was mixed at r.t. in a shaker water bath 24 h. The resulting suspension was filtered through a 0.45 μm nylon filter (Acrodisc), and the solubilized compound was quantified in triplicate using UV/LC–MS method reported above by comparison with the appropriate calibration curve that was obtained from samples of the compound dissolved in methanol at different concentrations.[94]

The mark [3] stands for this setting: read-out: water solubility (log s) (converted).

Read-outs that look alike come from different tables or passages of the source.

T2 sequence (Q2NL67 whole entry): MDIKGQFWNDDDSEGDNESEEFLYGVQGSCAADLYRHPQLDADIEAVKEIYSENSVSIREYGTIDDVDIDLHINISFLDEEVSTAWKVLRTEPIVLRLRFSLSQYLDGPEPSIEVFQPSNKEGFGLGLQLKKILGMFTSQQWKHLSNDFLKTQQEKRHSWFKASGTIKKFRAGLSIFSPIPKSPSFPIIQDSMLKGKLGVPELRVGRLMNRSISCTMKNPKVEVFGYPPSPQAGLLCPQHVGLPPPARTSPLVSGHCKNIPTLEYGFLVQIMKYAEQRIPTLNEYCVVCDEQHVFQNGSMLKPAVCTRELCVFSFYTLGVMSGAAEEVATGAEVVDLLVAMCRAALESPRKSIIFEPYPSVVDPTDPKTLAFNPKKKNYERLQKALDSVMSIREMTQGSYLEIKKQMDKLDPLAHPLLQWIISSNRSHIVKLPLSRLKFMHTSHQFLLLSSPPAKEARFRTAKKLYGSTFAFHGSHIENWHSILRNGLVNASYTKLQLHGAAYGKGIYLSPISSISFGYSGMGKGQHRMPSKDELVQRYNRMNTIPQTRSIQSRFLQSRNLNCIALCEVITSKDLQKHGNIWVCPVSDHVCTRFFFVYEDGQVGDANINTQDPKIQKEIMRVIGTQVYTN

Usually IC50 stands for the midpoint of a concentration-inhibition curve. One may read the solubility as the concentration that dissolves in the medium under given conditions. For `Cc1ccc2c(c1)sc1nnc(N)n12` [Compound 21, 7-Methyl[1,2,4]triazolo[3,4-b][1,3]benzothiazol-3-amine], the IC50 at TNKS2 was 5.7 µM; on Human PARP6 it was > 10 µM. In addition, in series [1], the “metabolic stablity % (unchanged compound)” value is reported as 99.14%. For the same compound, the solubility at 24 h is 37.6 µg/mL in series [2] (read-out: water solubility) and 184 µM in series [2] (setting [3]).

On to `COc1ccc(OC)c2c1sc1nnc(N)n12` [Compound 27, 5,8-Dimethoxy[1,2,4]triazolo[3,4-b][1,3]benzothiazol-3-amine], for which the IC50 worked out at 10 µM on TNKS2 and 7.7 µM on Human PARP6. In series [1], the “metabolic stablity % (unchanged compound)” value is 99.11%. The solubility at 24 h is 12.6 µg/mL in series [2] (read-out: water solubility) and 50.4 µM in series [2] (setting [3]).
